# Reference: US6300471A, “FSH-releasing peptides” (Board of Supervisors of Louisiana State University and …, priority 1998, dated 2001)
# “Also recorded” adds a separate entry of the source. Read-outs that look alike come from different tables or passages of the source. Where a SMILES comes first, the peptide text is derived from it. [ ]: non-standard residue; d: D form. pGlu = O=C1CC[C@@H](C(=O)O)N1
# How the values were obtained:
# [1] = tested on: ovariectomized, estrogen- and progesterone-blocked female rats; test: FSH release in vivo after intravenous injection; set-up: species or system rat; settings: for selectivity for FSH release in vivo, result in words: screen of known LHRH's and LHRH analogs, unpublished data; for Change in FSH from baseline, 10 minutes post-injection: saline control -3.85 ± 0.82
# Procedure: (§1) Female rats were ovariectomized under anesthesia with isoflurane 4 weeks prior to the in vivo experiments. Three days before blood sampling, each ovariectomized rat was injected subcutaneously with 50 μg estradiol benzoate (Sigma Chemical Co., St. Louis, Mo.) dissolved in 0.1 ml sesame oil, and 25 mg progesterone (Eli Lilly, Indianapolis, Ind.) dissolved in 0.5 ml sesame oil. One day prior to testing, each animal was implanted with a jugular-atrial catheter. On the morning of testing, polyethylene tubing (PE-50) was connected to the distal end of the jugular-atrial catheter on the rat's dorsum to facilitate blood sampling and intravenous injection. Animals were acclimatized one hour before initial blood samples were taken. Heparinized blood samples ([…]) were collected just before, and at 10, 30, and 60 minutes after injection of 0.5 ml isotonic saline or l-LHRH-III (10 or 100 pmole) in 0.5 ml isotonic saline. After removal of each blood sample, an equal volume of isotonic saline was administered to maintain blood volume.
# [2] = tested on: hemi-anterior pituitaries of adult male rats; test: LH release in vitro from incubated hemi-anterior pituitaries (RIA of medium); assay type: cell-based, rat; settings: for LH: n = 6
# Procedure: (§2) After acclimatization for 5 or more days in the vivarium, male rats were killed by decapitation. Following removal of the posterior lobe, the anterior pituitary (AP) was bisected longitudinally, and each AP was incubated in a tube containing 0.5 ml Krebs-Ringer bicarbonate (5 mM ascorbic acid; pH 7.4) buffer (KRB) in an atmosphere of 95% O2 /5% CO2 in a Dubnoff shaker (50 cycles per min) for a period of 60 min. Following this pre-incubation period, the APs were incubated for 3 hr in fresh KRB buffer alone (control), or in KRB containing one of various concentrations of synthetic mammalian (m)-LHRH, l-LHRH-III, l-LHRH-I, chicken (c)-LHRH-II, or salmon (s)-LHRH. The medium was then aspirated, and was stored frozen at -20° C. until radio-immunoassays (RIA) for FSH and LH were conducted. FSH and LH were measured using kits supplied by the National Institute of Arthritis Digestive Diabetes and Kidney Disease; hormone values were expressed in terms of NIH-rFSH-RP-2 and NIH-rLH-RP-3 standards. The experiments were repeated twice. The inter- and intra-assay coefficients of variation for FSH assays were 7.5% and 5.2%, respectively; and were 6.5% and 4.8% for LH assays.
# [3] = tested on: hemi-anterior pituitaries of adult male rats; test: FSH release in vitro from incubated hemi-anterior pituitaries (RIA of medium); assay type: cell-based, rat; settings: for FSH: n = 6
# Procedure: as §2
# [4] = tested on: rats; settings: Yu et al., 1990; cited from earlier work
# [5] = tested on: ovariectomized, estrogen- and progesterone-blocked female rats; test: LH release in vivo after intravenous injection; set-up: species or system rat; settings: for Change in LH from baseline, 10 minutes post-injection: saline control -0.070 ± 0.122
# Procedure: as §1
# [6] = tested on: Petromyzon marinus (lamprey) ovaries; settings: Sower et al., 1993; cited from earlier work
# [7] = Table 5 experiment, 10^-6 M, KRB control 149.3 ± 17.0
# [8] = Table 5 experiment, 10^-7 M, KRB control 149.3 ± 17.0
# [9] = Table 5 experiment, 10^-8 M, KRB control 149.3 ± 17.0
# [10] = Table 4 experiment, 10^-6 M, KRB control 157.5 ± 13.2
# [11] = Table 4 experiment, 10^-7 M, KRB control 157.5 ± 13.2
# [12] = Table 4 experiment, 10^-8 M, KRB control 157.5 ± 13.2
# [13] = Table 3, 10^-5 M, 3 hr incubation, KRB control 139.3 ± 16.9
# [14] = Table 3, 10^-6 M, 3 hr incubation, KRB control 139.3 ± 16.9
# [15] = Table 2, 10^-5 M, 3 hr incubation, KRB control 97.7 ± 20.4
# [16] = Table 2, 10^-6 M, 3 hr incubation, KRB control 97.7 ± 20.4
structure (smiles),measurement,setting,value
"NC(=O)CNC(=O)[C@@H]1CCCN1C(=O)[C@H](Cc1ccc(O)cc1)NC(=O)[C@H](Cc1c[nH]c2ccccc12)NC(=O)CNC(=O)[C@H](Cc1c[nH]cn1)NC(=O)[C@H](CO)NC(=O)[C@H](Cc1c[nH]c2ccccc12)NC(=O)[C@H](Cc1c[nH]cn1)NC(=O)[C@@H]1CCC(=O)N1 [c-LHRH-II, pGlu-His-Trp-Ser-His-G1y-Trp-Tyr-Pro-Gly-NH2] ([pGlu]HWSHGWYPG-NH2)","selectivity for FSH release in vivo, result in words",[1],slight selectivity for FSH release
same,"selectivity for FSH release in vivo, result in words",[1]; listed as chicken (c) LHRH-II,slightly preferential FSH-releasing activity in vivo
same,"LH release in vitro, result in words",[2],equivalent LH-releasing activity to that of m-LHRH
same,LH,[2]; [7],239.0 ± 31.7 ng/mL
same,LH,[2]; [8],216.3 ± 17.7 ng/mL
same,LH,[2]; [9],199.3 ± 13.6 ng/mL
same,"LH release in vitro, result in words",[2]; listed as Chicken (c) LHRH-II,stimulated LH release at doses from 10^-8 to 10^-6 M
same,"FSH release in vitro, result in words",[3],only significantly increased FSH release at the highest concentration tested (10^-6 M)
same,FSH,[3]; [10],263.7 ± 17.8 ng/mL
same,FSH,[3]; [11],209.3 ± 44.0 ng/mL
same,FSH,[3]; [12],123.7 ± 18.0 ng/mL
same,"FSH release in vitro, result in words",[3]; listed as chicken LHRH-II,"low potency, and lacked specificity for FSH release"
"CC(C)C[C@H](NC(=O)[C@H](CO)NC(=O)[C@H](Cc1ccc(O)cc1)NC(=O)[C@H](Cc1c[nH]cn1)NC(=O)[C@@H]1CCC(=O)N1)C(=O)N[C@@H](CCC(=O)O)C(=O)N[C@@H](Cc1c[nH]c2ccccc12)C(=O)N[C@@H](CCCCN)C(=O)N1CCC[C@H]1C(=O)NCC(N)=O [l-LHRH-I, pGlu-His-Tyr-Ser-Leu-Glu-Trp-Lys-Pro-Gly-NH2] ([pGlu]HYSLEWKPG-NH2)","LH release in vitro, result in words",[2],minimal potency to release either FSH or LH; also recorded: inactive at the two concentrations tested
same,LH,[2]; [13],120.4 ± 8.1 ng/mL
same,LH,[2]; [14],134.1 ± 23.2 ng/mL
same,activity in releasing FSH or LH in rats,[4],relatively low activity in releasing either FSH or LH
same,"FSH release in vitro, result in words",[3],minimal potency to release either FSH or LH; also recorded: small but statistically significant release of FSH at a concentration of 10^-5 M
same,FSH,[3]; [15],178.2 ± 17.0 ng/mL
same,FSH,[3]; [16],164.0 ± 29.3 ng/mL
"NCCCC[C@H](NC(=O)[C@H](Cc1c[nH]c2ccccc12)NC(=O)[C@H](CC(=O)O)NC(=O)[C@H](Cc1c[nH]cn1)NC(=O)[C@H](CO)NC(=O)[C@H](Cc1c[nH]c2ccccc12)NC(=O)[C@H](Cc1c[nH]cn1)NC(=O)[C@@H]1CCC(=O)N1)C(=O)N1CCC[C@H]1C(=O)NCC(N)=O [l-LHRH-III, pGlu-His-Trp-Ser-His-Asp-Trp-Lys-Pro-Gly-NH2]","Change in LH from baseline, 10 minutes post-injection","[5]; 10 pmole intravenous, n = 6",-0.022 ± 0.078 ng/mL
same,"plasma LH after injection versus saline control, result in words","[5]; 10 pmole or 100 pmole intravenous, 10, 30, 60 minutes",no significant increase in LH
same,"Change in LH from baseline, 10 minutes post-injection","[5]; 100 pmole intravenous, n = 7",0.097 ± 0.077 ng/mL
same,estradiol and progesterone release from ovaries,[6],stimulated estradiol and progesterone release
same,"release of FSH versus LH in vivo, result in words",[1]; 10 pmole and 100 pmole,"caused the release of FSH in vivo, but not LH"
same,"plasma FSH after injection versus saline control, result in words",[1]; 10 pmole intravenous,"highly significant increase in plasma FSH 10 minutes after injection, an effect that vanished by 30 minutes post-injection; also recorded: increase in FSH in vivo (P<0.01) within ten minutes"
same,"Change in FSH from baseline, 10 minutes post-injection","[1]; 10 pmole intravenous, n = 6",-0.75 ± 0.37 ng/mL
same,"plasma FSH after injection versus saline control, result in words",[1]; 100 pmole intravenous,slightly greater effect at 10 minutes that was maintained 30 minutes after injection
same,"Change in FSH from baseline, 10 minutes post-injection","[1]; 100 pmole intravenous, n = 7",-0.43 ± 0.61 ng/mL
same,LH,"[2]; Table 3, 10^-4 M, 3 hr incubation, KRB control 139.3 ± 16.9",236.6 ± 19.3 ng/mL
same,LH,[2]; [13],202.9 ± 31.2 ng/mL
same,LH,[2]; [14],233.6 ± 33.8 ng/mL
same,LH,"[2]; Table 3, 10^-7 M, 3 hr incubation, KRB control 139.3 ± 16.9",179.9 ± 28.4 ng/mL
same,LH,"[2]; Table 3, 10^-8 M, 3 hr incubation, KRB control 139.3 ± 16.9",165.7 ± 26.6 ng/mL
same,LH,"[2]; Table 3, 10^-9 M, 3 hr incubation, KRB control 139.3 ± 16.9",171.8 ± 27.3 ng/mL
same,LH,[2]; [7],176.0 ± 9.3 ng/mL
same,LH,[2]; [8],182.7 ± 13.7 ng/mL
same,LH,[2]; [9],163.2 ± 6.5 ng/mL
same,LH,"[2]; Table 5 experiment, 10^-9 M, KRB control 149.3 ± 17.0",158.7 ± 10.2 ng/mL
same,"FSH release in vitro, result in words",[3],approximately equipotent toward releasing FSH; also recorded: caused FSH release in a dose-related fashion
same,FSH,"[3]; Table 2, 10^-4 M, 3 hr incubation, KRB control 97.7 ± 20.4",368.6 ± 40.9 ng/mL
same,FSH,[3]; [15],283.0 ± 60.8 ng/mL
same,FSH,[3]; [16],278.2 ± 40.9 ng/mL
same,FSH,"[3]; Table 2, 10^-7 M, 3 hr incubation, KRB control 97.7 ± 20.4",213.0 ± 17.9 ng/mL
same,FSH,"[3]; Table 2, 10^-8 M, 3 hr incubation, KRB control 97.7 ± 20.4",255.7 ± 42.4 ng/mL
same,FSH,"[3]; Table 2, 10^-9 M, 3 hr incubation, KRB control 97.7 ± 20.4",228.3 ± 52.5 ng/mL
same,MEC for statistically significant FSH release relative to c-LHRH-II,[3]; Table 4 experiment,two orders of magnitude lower
same,FSH,[3]; [10],215.0 ± 38.0 ng/mL
same,FSH,[3]; [11],203.2 ± 16.4 ng/mL
same,FSH,[3]; [12],249.3 ± 31.3 ng/mL
same,FSH,"[3]; Table 4 experiment, 10^-9 M, KRB control 157.5 ± 13.2",196.3 ± 21.2 ng/mL
same,minimal effective concentration (MEC) for FSH release,[3]; lowest concentration tested 10^-9 M,≤ 10^-9 M
same,concentration of maximal effect on FSH release,[3]; release levelled off through 10^-4 M,about 10^-6 M
"CC(C)C[C@H](NC(=O)CNC(=O)[C@H](Cc1ccc(O)cc1)NC(=O)[C@H](CO)NC(=O)[C@H](Cc1c[nH]c2ccccc12)NC(=O)[C@H](Cc1c[nH]cn1)NC(=O)[C@@H]1CCC(=O)N1)C(=O)N[C@@H](CCCNC(=N)N)C(=O)N1CCC[C@H]1C(=O)NCC(N)=O [m-LHRH, pGlu-His-Trp-Ser-Tyr-Gly-Leu-Arg-Pro-Gly-NH2]","LH release in vitro, result in words",[2],"dose-related stimulatory effect on LH release, and was active at the lowest concentration tested (4×10^-9 M)"
same,LH,"[2]; Table 3, 2 × 10^-8 M, 3 hr incubation, KRB control 139.3 ± 16.9",262.0 ± 36.1 ng/mL
same,LH,"[2]; Table 3, 4 × 10^-9 M, 3 hr incubation, KRB control 139.3 ± 16.9",183.1 ± 27.0 ng/mL
same,LH,"[2]; Table 5 experiment, 2 × 10^-8 M, KRB control 149.3 ± 17.0",214.7 ± 30.3 ng/mL
same,"FSH release in vitro, result in words",[3],approximately equipotent toward releasing FSH; also recorded: equivalent levels of FSH release at the two concentrations tested
same,FSH,"[3]; Table 2, 2 × 10^-8 M, 3 hr incubation, KRB control 97.7 ± 20.4",257.5 ± 42.4 ng/mL
same,FSH,"[3]; Table 2, 4 × 10^-9 M, 3 hr incubation, KRB control 97.7 ± 20.4",218.5 ± 35.7 ng/mL
same,FSH,"[3]; Table 4 experiment, 2 × 10^-8 M, KRB control 157.5 ± 13.2",320.5 ± 42.6 ng/mL
"CC(C)C[C@H](NC(=O)[C@H](Cc1c[nH]c2ccccc12)NC(=O)CNC(=O)[C@H](Cc1ccc(O)cc1)NC(=O)[C@H](CO)NC(=O)[C@H](Cc1c[nH]c2ccccc12)NC(=O)[C@H](Cc1c[nH]cn1)NC(=O)[C@@H]1CCC(=O)N1)C(=O)N1CCC[C@H]1C(=O)NCC(N)=O [s-LHRH, pGlu-His-Trp-Ser-Tyr-Gly-Trp-Leu-Pro-Gly-NH2] ([pGlu]HWSYGWLPG-NH2)","LH release in vitro, result in words",[2],stimulated the release of both FSH and LH
same,LH,[2]; [7],186.2 ± 13.6 ng/mL
same,LH,[2]; [8],230.8 ± 38.8 ng/mL
same,FSH,[3]; [10],203.2 ± 39.2 ng/mL
same,FSH,[3]; [11],233.0 ± 37.4 ng/mL
same,"FSH release in vitro, result in words",[3]; listed as Salmon (s)-LHRH,stimulated the release of both FSH and LH
same,"FSH release in vitro, result in words",[3]; listed as Salmon LHRH,"low potency, and lacked specificity for FSH release"
